# According to US4201866A, “O-Hemi-succinate of propranolol” (American Home Products Corporation, priority 1977, dated 1980):
# Values joined by “and” are separate entries in the source; they are usually repeats but may differ in a detail not shown here. Identical values can stand only once. Counter-ions that a name gives are not always drawn. Like-named read-outs stand apart in the source and are kept apart here.
# Legend:
# Format in all cases: in vivo, beagle dogs
# [1] = Intravenous propranolol-o-hemi-succinate hydrochloride; plasma levels of unchanged ester and free propranolol (Example 5)
# Description: (§1) Four beagle dogs were administered propranolol-o-hemi-succinate hydrochloride either intravenously or orally. The dogs were divided into two groups of two, each group receiving each dosing regimen according to a crossover design. The oral doses consisted of 107 mg of propranolol-o-hemi-succinate hydrochloride (equivalent to 80 mg propranolol HCl) and the intravenous doses consisted of 26.7 mg of propranolol-o-hemi-succinate hydrochloride (equivalent to 20 mg propranolol HCl). Blood samples were collected at regular intervals after dosing and plasma was analyzed for free propranolol and unchanged propranolol-o-hemi-succinate hydrochloride.
# (§2) Plasma was analyzed for propranolol-o-hemi-succinate hydrochloride by a TLC fluorometric procedure. Two ml samples were mixed with 2 ml of pH 4 buffer and extracted with 40 ml of methylene chloride. A 30 ml aliquot from the organic phase was evaporated to dryness and the residue was dissolved in 100 μl of ethanol. Twenty-five μl aliquots were spotted on TLC plates of silica gel along with standard solutions of propranolol-o-hemi-succinate hydrochloride. The plates were developed in saturated tank containing the solvent system: isopropyl alcohol (55 ml), benzene (40 ml), water (5 ml), formic acid (3 ml). After developement, the plates were dried and sprayed with a 50% solution of propylene glycol in water. They were read in the fluorescence mode of a Schoeffel spectrodensitometer. The limit of reliable quantitation was 25 ng per ml of plasma.
# [2] = Intravenous administration of propranolol HCl and propranolol-o-hemi-succinate HCl; plasma levels of free propranolol (Example 3)
# Description: (§3) Plasma was analyzed for free propranolol by a TLC fluorometric procedure. Two ml samples were mixed with 2 ml of pH 10 buffer and extracted with 25 ml of ethyl ether. A 20 ml aliquot from the ether phase was evaporated to dryness and the dry residue was dissolved in 100 μl of ethanol. Twenty-five μl aliquots were spotted on TLC plates of silica gel along with standard solutions of propranolol. The plates were developed in a saturated tank containing the solvent system methanol (100 ml): concentrated NH4 OH (0.4 ml). After development, the plates were dried and sprayed with a 50% solution of propylene glycol in water. They were then read in the fluorescence mode of a Schoeffel spectrodensitometer. The limit of reliable quantitation was 2 ng. of propranolol per ml of plasma.
# In this experiment, the same four dogs used in Example 2 were administered a 20 mg intravenous dose of propranolol HCl on one experimental day and an equivalent dose of the o-hemi-succinate on a second day. A period of one week elapsed between each administration. Blood samples were collected and analyzed as above.
# [3] = Oral administration of propranolol-o-hemi-succinate HCl and propranolol HCl; plasma levels of free propranolol (Example 2)
# Description: In this experiment, four beagle dogs were given an 80 mg. oral dose of propranolol HCl or an equivalent dose of the o-hemi-succinate. The animals were divided into two groups of two, each group receiving the drugs according to a crossover design. The crossover experiment was repeated twice. A period of at least one week elapsed between each dosing day. Blood samples were obtained at regular intervals after dosing a plasma was analyzed for free propranolol concentrations.
# as §3
# [4] = Oral propranolol-o-hemi-succinate hydrochloride; plasma levels of unchanged ester and free propranolol (Example 5)
# Description: as §1, §2
# [5] = Oral administration of a reduced dose of propranolol-o-hemi-succinate hydrochloride; plasma levels of free propranolol (Example 4)
# Description: Two beagle dogs were given an oral dose of 13.4 mg of propranolol-O-hemi-succinate hydrochloride (equivalent to 10 mg. propranolol HCl). Blood samples were obtained at regular intervals after drug administration and plasma analyzed for free propranolol. Plasma levels of free propranolol were compared to those obtained following administration of 80 mg dose of propranolol HCl.
# [6] = 80 mg propranolol HCl or equivalent
smiles,measurement,setting,value
"CC(C)NCC(COc1cccc2ccccc12)OC(=O)CCC(=O)O (stereo not drawn) [propranolol-o-hemi-succinate HCl, Butanedioic Acid Monol[[2-(1-Methylethyl] Amino] -1-[(1-Naphthalenyloxy) Methyl] Ethyl] Ester Hydrochloride]",Plasma level of unchanged propranolol-o-hemi-succinate HCl,"[1]; 0 h, i.v. 26.7 mg, individual dogs, in ng/mL",0
same,Plasma level of unchanged propranolol-o-hemi-succinate HCl,"[1]; 1/2 hr, i.v. 26.7 mg, individual dogs, 30 min, Hydrochloride",692 ng/mL and 1130 ng/mL and 811 ng/mL and 487 ng/mL
same,Plasma level of unchanged propranolol-o-hemi-succinate HCl,"[1]; 5 min, i.v. 26.7 mg, individual dogs, Hydrochloride",2770 ng/mL and 2540 ng/mL and 1430 ng/mL
same,Plasma level of unchanged propranolol-o-hemi-succinate HCl,"[1]; 10 min, i.v. 26.7 mg, individual dogs, Hydrochloride",1590 ng/mL and 2350 ng/mL and 1780 ng/mL and 946 ng/mL
same,Plasma level of unchanged propranolol-o-hemi-succinate HCl,"[1]; 15 min, i.v. 26.7 mg, individual dogs, Hydrochloride",1210 ng/mL and 1760 ng/mL and 1340 ng/mL and 819 ng/mL
same,Plasma level of unchanged propranolol-o-hemi-succinate HCl,"[1]; 1 hr, i.v. 26.7 mg, individual dogs, Hydrochloride, 60 min",366 ng/mL and 198 ng/mL
same,Plasma level of unchanged propranolol-o-hemi-succinate HCl,"[1]; 2 hrs, i.v. 26.7 mg, individual dogs, Hydrochloride, 120 min",91 ng/mL and 76 ng/mL and 132 ng/mL and 30 ng/mL
same,Plasma level of unchanged propranolol-o-hemi-succinate HCl,"[1]; 4 hrs, i.v. 26.7 mg, individual dogs, * = estimate only, below level of reliable quantitation, Hydrochloride",Trace
same,Plasma level of unchanged propranolol-o-hemi-succinate HCl,"[1]; 6 hrs, i.v. 26.7 mg, individual dogs",Trace
same,Mean plasma level of unchanged propranolol-o-hemi-succinate HCl,"[1]; 6 hrs, i.v. 26.7 mg, mean",Trace
same,half-life of free propranolol,[1]; after i.v. succinate ester,two
same,half-life,"[1]; dog, plasma, 26.7 mg, following intravenous dosing, read-out: t 1/2 of disappearance of propranolol-o-hemi-succinate hydrochloride",30 min
same,concentration at 0.5 h,"[1]; dog, plasma, iv, 26.7 mg, 1/2 hr, i.v. 26.7 mg, mean, read-out: Mean plasma level of unchanged propranolol-o-hemi-succinate HCl",781 ng/mL
same,concentration at 5 min,"[1]; dog, plasma, iv, 26.7 mg, 5 min, i.v. 26.7 mg, individual dogs, read-out: Plasma level of unchanged propranolol-o-hemi-succinate HCl",2200 ng/mL
same,concentration at 5 min,"[1]; dog, plasma, iv, 26.7 mg, 5 min, i.v. 26.7 mg, mean, read-out: Mean plasma level of unchanged propranolol-o-hemi-succinate HCl",2240 ng/mL
same,concentration at 10 min,"[1]; dog, plasma, iv, 26.7 mg, 10 min, i.v. 26.7 mg, mean, read-out: Mean plasma level of unchanged propranolol-o-hemi-succinate HCl",1670 ng/mL
same,concentration at 0.25 h,"[1]; dog, plasma, iv, 26.7 mg, 15 min, i.v. 26.7 mg, mean, read-out: Mean plasma level of unchanged propranolol-o-hemi-succinate HCl",1280 ng/mL
same,concentration at 1 h,"[1]; dog, plasma, iv, 26.7 mg, 1 hr, i.v. 26.7 mg, individual dogs, read-out: Plasma level of unchanged propranolol-o-hemi-succinate HCl",287 ng/mL
same,concentration at 1 h,"[1]; dog, plasma, iv, 26.7 mg, 1 hr, i.v. 26.7 mg, mean, read-out: Mean plasma level of unchanged propranolol-o-hemi-succinate HCl",284 ng/mL
same,concentration at 2 h,"[1]; dog, plasma, iv, 26.7 mg, 2 hrs, i.v. 26.7 mg, mean, read-out: Mean plasma level of unchanged propranolol-o-hemi-succinate HCl",82 ng/mL
same,concentration at 4 h,"[1]; dog, plasma, iv, 26.7 mg, 4 hrs, i.v. 26.7 mg, individual dogs, * = estimate only, below level of reliable quantitation, read-out: Plasma level of unchanged propranolol-o-hemi-succinate HCl",~15 ng/mL
same,concentration at 4 h,"[1]; dog, plasma, iv, 26.7 mg, 4 hrs, i.v. 26.7 mg, mean, * = estimate only, below level of reliable quantitation, read-out: Mean plasma level of unchanged propranolol-o-hemi-succinate HCl",~4 ng/mL
same,AUC(0-t) at 6 h,"[1]; dog, plasma, iv, 26.7 mg, i.v. 26.7 mg, mean, read-out: Mean AUC 0-6 hr of unchanged propranolol-o-hemi-succinate HCl",1230 ng·h/mL
same,AUC 0-6 hr of unchanged propranolol-o-hemi-succinate HCl,"[1]; i.v. 26.7 mg, individual dogs, Hydrochloride, 360 min",1160 ng·h/mL and 1530 ng·h/mL and 1520 ng·h/mL and 711 ng·h/mL
same,Mean plasma level of unchanged propranolol-o-hemi-succinate HCl,"[1]; i.v. 26.7 mg, mean",0
same,ester left 4 hours after administration,"[1]; i.v., 4 hours",virtually none
same,plasma levels of free propranolol 6 hours after administration of the succinate ester,"[1]; i.v., 6 hours",significant plasma levels still existed
same,Plasma levels of free propranolol compared with propranolol i.v.,[2]; equivalent dose,lower
same,Conversion of the propranolol ester to propranolol,[2]; i.v.,very fast
same,levels of propranolol found 5 minutes after administration,"[2]; i.v., 5 minutes",high levels
same,Absorption of the succinate and its conversion to propranolol,[3],rapid
same,plasma levels of free propranolol relative to equivalent dose of propranolol hydrochloride,[3],eight times higher
same,C.V. of overall mean AUC 0-6 hr,[3]; [6],41%
same,s.d. of overall mean AUC 0-6 hr,[3]; [6],445 ng·h/mL
same,"Plasma level of propranolol following oral administration, compared with propranolol hydrochloride",[3]; equivalent dose,considerably higher
same,"reduction of fluctuation in plasma levels following the pro-drug, as revealed by AUC values",[3]; vs propranolol hydrochloride,35%
same,Plasma level of unchanged propranolol-o-hemi-succinate HCl,"[4]; 0 h, oral 107 mg, individual dogs, in ng/mL",0
same,Mean plasma level of unchanged propranolol-o-hemi-succinate HCl,"[4]; 0 h, oral 107 mg, mean",0
same,Plasma level of unchanged propranolol-o-hemi-succinate HCl,"[4]; 1 hr, oral 107 mg, individual dogs, Hydrochloride, 60 min",2950 ng/mL and 1900 ng/mL and 3240 ng/mL and 1320 ng/mL
same,Plasma level of unchanged propranolol-o-hemi-succinate HCl,"[4]; 2 hrs, oral 107 mg, individual dogs, Hydrochloride, 120 min",715 ng/mL and 390 ng/mL and 486 ng/mL and 268 ng/mL
same,Plasma level of unchanged propranolol-o-hemi-succinate HCl,"[4]; 6 hrs, oral 107 mg, individual dogs, * = estimate only, below level of reliable quantitation, Hydrochloride",0 ng/mL
same,Plasma level of unchanged propranolol-o-hemi-succinate HCl,"[4]; 6 hrs, oral 107 mg, individual dogs, * = estimate only, below level of reliable quantitation, Hydrochloride, 360 min",20 ng/mL and 13 ng/mL and 8 ng/mL
same,concentration at 0.5 h,"[4]; dog, plasma, po, 107 mg, 1/2 hr, mean, read-out: Mean plasma level of unchanged propranolol-o-hemi-succinate HCl",1760 ng/mL
same,concentration at 1 h,"[4]; dog, plasma, po, 107 mg, 1 hr, mean, read-out: Mean plasma level of unchanged propranolol-o-hemi-succinate HCl",2350 ng/mL
same,concentration at 2 h,"[4]; dog, plasma, po, 107 mg, 2 hrs, mean, read-out: Mean plasma level of unchanged propranolol-o-hemi-succinate HCl",465 ng/mL
same,concentration at 4 h,"[4]; dog, plasma, po, 107 mg, 4 hrs, mean, read-out: Mean plasma level of unchanged propranolol-o-hemi-succinate HCl",62 ng/mL
same,concentration at 6 h,"[4]; dog, plasma, po, 107 mg, 6 hrs, mean, * = estimate only, below level of reliable quantitation, read-out: Mean plasma level of unchanged propranolol-o-hemi-succinate HCl",~10 ng/mL
same,AUC(0-t) at 6 h,"[4]; dog, plasma, po, 107 mg, mean, read-out: Mean AUC 0-6 Hrs. of unchanged propranolol-o-hemi-succinate HCl",3470 ng·h/mL
same,AUC 0-6 Hrs. of unchanged propranolol-o-hemi-succinate HCl,"[4]; oral 107 mg, individual dogs, Hydrochloride, 360 min",3590 ng·h/mL and 3366 ng·h/mL and 4818 ng·h/mL and 2121 ng·h/mL
same,Plasma level of free propranolol,"[5]; 6 hours after dosing, 80 mg propranolol HCl or 13.4 mg hemi-succinate HCl, individual dogs, Hydrochloride",Trace
same,levels of free propranolol at a dose 1/8 that of propranolol HCl,"[5]; dogs, vs propranolol HCl, only two dogs",comparable levels
